Results as given in EP1466611A1, “Use of HCG derived peptides in the treatment of iatrogenic diseases” (Biotempt B.V., priority 2003, dated 2004).
Ends that are not written are not given here.

System: NF-kB
Assay: NF-kB translocation by EMSA on nuclear extracts of RAW 264.7 mouse macrophages, basal and LPS induced (second experiment)
Format: cell-based
Conditions: RAW264.7 cells, LPS in combination with peptide, 30 minutes of incubation, peptide 1 microgr/ml or 1 mg/ml
Protocol: RAW 264.7 mouse macrophages were cultured in DMEM, containing 10% or 2% FBS, penicillin, streptomycin and glutamine, at 37 °C, 5% CO2. […] After 30 minutes of incubation plates were centrifuged and cells were collected for nuclear extracts. Nuclear extracts and EMSA were prepared according to Schreiber et al. Cells were collected in a tube and centrifuged for 5 minutes at 2000 rpm (rounds per minute) at 4°C (Universal 30 RF, Hettich Zentrifuges). The pellet was washed with ice-cold Tris buffered saline (TBS pH 7.4) and resuspended in 400 μl of a hypotonic buffer A (10 mM HEPES pH 7.9, 10 mM KCl, 0.1 mM EDTA, 0.1 mM EGTA, 1 mM DTT, 0.5 mM PMSF and protease inhibitor cocktail (Complete^TM Mini, Roche) and left on ice for 15 minutes. Twenty five micro litre 10% NP-40 was added and the sample was centrifuged (2 minutes, 4000 rpm, 4°C). The supernatant (cytoplasmic fraction) was collected and stored at -70°C. […] The samples were left to shake at 4°C for at least 60 minutes. Finally the samples were centrifuged and the supernatant (nucleic fraction) was stored at -70°C. Bradford reagent (Sigma) was used to determine the final protein concentration in the extracts. […] Hundred pico mol sense and antisense oligo were annealed and labelled with […] using T4 polynucleotide kinase according to the manufacture's instructions (Promega, Madison, WI). […]

“circular LQGVLPALPQVVC (also: circular / cyclised, mode of ring closure not given here) [NFkappaB down-regulating peptide]” was tested, and the “LPS induced translocation of NF-kB” value was “inhibition”.
